Test results taken from the NIST ThermoML archive (doi:10.1021/je900537y).

Experiment: molar heat capacity at constant pressure
Conditions: 101.33 kPa, Liquid, Small sample (50 mg) DSC

NCCCN [1,3-propanediamine]
Conditions | molar heat capacity at constant pressure [J/K/mol]
293.15 K | 203.05
294.65 K | 203.21
296.15 K | 203.37
297.65 K | 203.53
298.15 K | 203.59
299.15 K | 203.7
300.65 K | 203.86
302.15 K | 204.03
303.65 K | 204.19
305.15 K | 204.36
306.65 K | 204.53
308.15 K | 204.7
309.65 K | 204.87
311.15 K | 205.04
312.65 K | 205.21
314.15 K | 205.38
315.65 K | 205.56
317.15 K | 205.73
318.65 K | 205.91
320.15 K | 206.08
321.65 K | 206.26
323.15 K | 206.43
324.65 K | 206.61
326.15 K | 206.79
327.65 K | 206.96
329.15 K | 207.14
330.65 K | 207.32
332.15 K | 207.5
333.65 K | 207.67
335.15 K | 207.85
336.65 K | 208.03
338.15 K | 208.2
339.65 K | 208.38
341.15 K | 208.56
342.65 K | 208.73
344.15 K | 208.91
345.65 K | 209.08
347.15 K | 209.26
348.65 K | 209.43
350.15 K | 209.6
351.65 K | 209.78
353.15 K | 209.95

NCCN [ethane-1,2-diamine]
Conditions | molar heat capacity at constant pressure [J/K/mol]
293.15 K | 172.34
294.65 K | 172.43
296.15 K | 172.53
297.65 K | 172.63
298.15 K | 172.66
299.15 K | 172.73
300.65 K | 172.84
302.15 K | 172.95
303.65 K | 173.06
305.15 K | 173.17
306.65 K | 173.29
308.15 K | 173.41
309.65 K | 173.53
311.15 K | 173.66
312.65 K | 173.79
314.15 K | 173.92
315.65 K | 174.05
317.15 K | 174.18
318.65 K | 174.31
320.15 K | 174.45
321.65 K | 174.59
323.15 K | 174.72
324.65 K | 174.86
326.15 K | 175
327.65 K | 175.15
329.15 K | 175.29
330.65 K | 175.43
332.15 K | 175.58
333.65 K | 175.72
335.15 K | 175.86
336.65 K | 176.01
338.15 K | 176.15
339.65 K | 176.3
341.15 K | 176.44
342.65 K | 176.59
344.15 K | 176.73
345.65 K | 176.87
347.15 K | 177.02
348.65 K | 177.16
350.15 K | 177.3
351.65 K | 177.44
353.15 K | 177.58

NCCCCCCCN [1,7-diaminoheptane]
Conditions | molar heat capacity at constant pressure [J/K/mol]
302.15 K | 332.76
303.65 K | 332.93
305.15 K | 333.11
306.65 K | 333.29
308.15 K | 333.48
309.65 K | 333.67
311.15 K | 333.86
312.65 K | 334.06
314.15 K | 334.27
315.65 K | 334.48
317.15 K | 334.7
318.65 K | 334.92
320.15 K | 335.15
321.65 K | 335.38
323.15 K | 335.62
324.65 K | 335.87
326.15 K | 336.12
327.65 K | 336.38
329.15 K | 336.64
330.65 K | 336.91
332.15 K | 337.18
333.65 K | 337.47
335.15 K | 337.76
336.65 K | 338.05
338.15 K | 338.35
339.65 K | 338.66
341.15 K | 338.98
342.65 K | 339.3
344.15 K | 339.63
345.65 K | 339.97
347.15 K | 340.31
348.65 K | 340.66
350.15 K | 341.02
351.65 K | 341.39
353.15 K | 341.76

NCCCCCCCCCN [1,9-diaminononane]
Conditions | molar heat capacity at constant pressure [J/K/mol]
311.15 K | 398.93
312.65 K | 399.04
314.15 K | 399.17
315.65 K | 399.32
317.15 K | 399.47
318.65 K | 399.64
320.15 K | 399.82
321.65 K | 400.02
323.15 K | 400.22
324.65 K | 400.44
326.15 K | 400.67
327.65 K | 400.92
329.15 K | 401.17
330.65 K | 401.44
332.15 K | 401.72
333.65 K | 402.02
335.15 K | 402.32
336.65 K | 402.64
338.15 K | 402.97
339.65 K | 403.32
341.15 K | 403.67
342.65 K | 404.04
344.15 K | 404.43
345.65 K | 404.82
347.15 K | 405.23
348.65 K | 405.65
350.15 K | 406.08
351.65 K | 406.52
353.15 K | 406.98

NCCCCN [1,4-butanediamine]
Conditions | molar heat capacity at constant pressure [J/K/mol]
298.15 K | 236.33
299.15 K | 236.45
300.65 K | 236.61
302.15 K | 236.77
303.65 K | 236.94
305.15 K | 237.09
306.65 K | 237.25
308.15 K | 237.41
309.65 K | 237.56
311.15 K | 237.72
312.65 K | 237.87
314.15 K | 238.03
315.65 K | 238.18
317.15 K | 238.34
318.65 K | 238.49
320.15 K | 238.65
321.65 K | 238.81
323.15 K | 238.97
324.65 K | 239.13
326.15 K | 239.29
327.65 K | 239.46
329.15 K | 239.63
330.65 K | 239.8
332.15 K | 239.98
333.65 K | 240.15
335.15 K | 240.34
336.65 K | 240.52
338.15 K | 240.71
339.65 K | 240.91
341.15 K | 241.11
342.65 K | 241.32
344.15 K | 241.53
345.65 K | 241.74
347.15 K | 241.97
348.65 K | 242.2
350.15 K | 242.43
351.65 K | 242.68
353.15 K | 242.93

NCCCCCCN [1,6-hexanediamine]
Conditions | molar heat capacity at constant pressure [J/K/mol]
314.15 K | 301.08
315.65 K | 301.25
317.15 K | 301.42
318.65 K | 301.59
320.15 K | 301.77
321.65 K | 301.95
323.15 K | 302.14
324.65 K | 302.33
326.15 K | 302.53
327.65 K | 302.74
329.15 K | 302.95
330.65 K | 303.17
332.15 K | 303.4
333.65 K | 303.64
335.15 K | 303.88
336.65 K | 304.13
338.15 K | 304.4
339.65 K | 304.67
341.15 K | 304.95
342.65 K | 305.25
344.15 K | 305.55
345.65 K | 305.87
347.15 K | 306.2
348.65 K | 306.54
350.15 K | 306.89
351.65 K | 307.26
353.15 K | 307.64
